Test results: ChEMBL document CHEMBL2203213, “Cytotoxic indole diketopiperazines from the deep sea-derived fungus Acrostalagmus luteoalbus SCSIO F457” (Bioorg Med Chem Lett, 2012)

Columns and labels:
Assay type in all cases: functional, cell-based
[1] = tested on: NCI-H460; assay: Cytotoxicity against human NCI-H460 cells by SRB method
[2] = tested on: HepG2; assay: Cytotoxicity against human HepG2 cells by SRB method
[3] = tested on: MCF7; assay: Cytotoxicity against human MCF7 cells by SRB method
[4] = tested on: SF-268; assay: Cytotoxicity against human SF268 cells by SRB method

Structure (SMILES): CN1C(=O)[C@]23SS[C@@]1(C)C(=O)N2[C@H]1Nc2ccccc2[C@]1(c1c[nH]c2ccccc12)[C@@H]3O
- IC50 [1]: 6570 nM
- IC50 [2]: 530 nM
- IC50 [3]: 230 nM
- IC50 [4]: 730 nM

Structure (SMILES): CS[C@]1(Cc2c[nH]c3ccccc23)NC(=O)[C@](CO)(SC)N(C)C1=O [CHETOSEMINUDIN B]
- IC50 [1]: > 100000 nM
- IC50 [2]: > 100000 nM
- IC50 [3]: > 100000 nM
- IC50 [4]: > 100000 nM

Structure (SMILES): CS[C@]1(CO)NC(=O)[C@](Cc2c[nH]c3ccccc23)(SC)NC1=O [CHETOSEMINUDIN C]
- IC50 [1]: > 100000 nM
- IC50 [2]: > 100000 nM
- IC50 [3]: > 100000 nM
- IC50 [4]: > 100000 nM

Structure (SMILES): CN1C(=O)[C@]23SSS[C@]1(CO)C(=O)N2[C@H]1Nc2ccccc2[C@@]1(c1c[nH]c2ccccc12)[C@@H]3O
- IC50 [1]: 5600 nM
- IC50 [2]: 3520 nM
- IC50 [3]: 910 nM
- IC50 [4]: 1040 nM

Structure (SMILES): C[C@H]1C(=O)N[C@@H](Cc2c[nH]c3ccccc23)C(=O)N1C
- IC50 [1]: > 100000 nM
- IC50 [2]: > 100000 nM
- IC50 [3]: > 100000 nM
- IC50 [4]: > 100000 nM

Structure (SMILES): O=C1N[C@@H](Cc2c[nH]c3ccccc23)C(=O)N[C@H]1CO
- IC50 [1]: > 100000 nM
- IC50 [2]: > 100000 nM
- IC50 [3]: > 100000 nM
- IC50 [4]: > 100000 nM

Structure (SMILES): CN1C(=O)[C@@]23C[C@@]4(c5c[nH]c6ccccc56)c5ccccc5N[C@@H]4N2C(=O)[C@]1(CO)SSS3 [LUTEOALBUSIN B]
- IC50 [1]: 1310 nM
- IC50 [2]: 1290 nM
- IC50 [3]: 250 nM
- IC50 [4]: 590 nM

Structure (SMILES): C[C@@H]1NC(=O)[C@H](Cc2c[nH]c3ccccc23)NC1=O
- IC50 [1]: > 100000 nM
- IC50 [2]: > 100000 nM
- IC50 [3]: > 100000 nM
- IC50 [4]: > 100000 nM

Structure (SMILES): CN1C(=O)[C@]23SSS[C@@]1(C)C(=O)N2[C@H]1Nc2ccccc2[C@]1(c1c[nH]c2ccccc12)[C@@H]3O
- IC50 [1]: 17800 nM
- IC50 [2]: 2030 nM
- IC50 [3]: 650 nM
- IC50 [4]: 2490 nM

Structure (SMILES): CN1C(=O)[C@@]23C[C@@]4(c5c[nH]c6ccccc56)c5ccccc5N[C@@H]4N2C(=O)[C@]1(CO)SS3 [LUTEOALBUSIN A]
- IC50 [1]: 1150 nM
- IC50 [2]: 910 nM
- IC50 [3]: 230 nM
- IC50 [4]: 460 nM
